{"source": "patent EP1762239A1", "about": "“Lofexidine for intraspinal administration” (Texcontor Etablissement, priority 2005, dated 2007)", "test_system": "rat model of post-operative pain", "experiment": "Rat model of post-operative pain (plantar incision), tactile allodynia by electronic von Frey", "format": "in vivo, Wistar rats", "conditions": "for Tactile Pressure (g) Post-treatment 15min. / Tactile Pressure (g) Post-treatment 30min. / Tactile Pressure (g) Post-treatment 60min. / Tactile Pressure (g) Post-treatment 120 min.: 24 hours after surgery, single readings at 4 points per rat; for Tactile Pressure (g) Post-treatment 15min. Ave. / Tactile Pressure (g) Post-treatment 30min. Ave. / Tactile Pressure (g) Post-treatment 60min. Ave. / Tactile Pressure (g) Post-treatment 120 min. Ave.: average of 4 points; for Tactile Pressure (g) Post-treatment 15min. Mean / Tactile Pressure (g) Post-treatment 30min. Mean / Tactile Pressure (g) Post-treatment 60min. Mean / Tactile Pressure (g) Post-treatment 120 min. Mean: group mean of 5 rats; for Δ Treatment 15min. / Δ Treatment 30min. / Δ Treatment 60min. / Δ Treatment 120 min.: (Post-Treatment) - (Pre-Treatment)", "method": "Lofexidine at 0.00032 and 0.0032 mg/rat injected intrathecally (ITH) was evaluated for possible analgesic activity in a rat model of post-operative pain which was induced with an incision made on the plantar surface of the hind paw. To measure tactile allodynia, a supertip with a flattened surface connected to Electrovonfrey Aesthethiometer (IITC, USA) was applied slowly and gently onto the plantar surface of the hind paw, where 4 points around the incision were identified. The endpoint is the mean withdrawal threshold values (gm) in response to von Frey filament, serving as a measure of analgesic activity. Percent inhibition was calculated as Δ treatment values (change in threshold pressure caused by treatment) relative to Δ blank values (change in threshold value caused by incision). Lofexidine.HCl was dissolved in 0.9% NaCl and at doses of 0.00032 and 0.0032 mg/rat was administered intrathecally (ITH). The dosing volume was 10 µl/rat. Male Wistar derived rats weighing 270 ± 30 g provided by BioLasco Taiwan (under Charles River Laboratories Technology licensee) were used. Space allocation for animals was 45 x 23 x 15 cm for 6 rats. Animals were housed in APEC^R cages. All animals were maintained in a controlled temperature (22-24°C) and humidity (60%-80%) environment with 12 hours light dark cycles for at least one week in MDS Pharma Services-Taiwan Laboratory prior to use. Free access to standard lab chow (Lab Diet, Rodent Diet, PMI Nutrition International, USA) and tap water was granted. All aspects of this work including housing, experimentation and disposal of animals were performed in general accordance with the Guide for the Care and Use of Laboratory Animals (National Academy Press, Washington, D. C, 1996). Groups of 5 male Wistar rats weighing 270 ± 30 g were used. Prior to surgery, individual animals were acclimatised to the testing environment and baseline responses to Electronic Von Frey Aesthesiometer (2290CE Electrovonfrey®, IITC, USA) with a rigid tip were performed (Pre-Incision). Under pentobarbital (50 mg/kg, 5 ml/kg, i.p.) anesthesia, the left hind paw was aseptically prepared. A 1-cm longitudinal incision was made with a number 11 blade, through the skin and fascia of the plantar aspect of the foot, starting 0.5 cm from the proximal edge of the heel and extending toward the toes. The plantaris muscle was elevated and incised longitudinally, followed by crushing with a mosquito hemostat for 20 seconds. The muscle origin and insertion remained intact After hemostasis with gentle pressure, the skin and fascia were then closed as one layer using 4-0 silk suture. Evaluation for pain was performed at 24 hours postoperatively between 08:00 and 16:00h. Each animal was monitored at 15, 30, 60 and 120 minutes after intrathecal administration of lofexidine.HCl. The rats were placed under inverted plexiglas cages on a wire mesh rack and a brief observation of general behavior post-injection was made. The rigid tip part of the Electronic Von Frey Aesthesiometer was applied perpendicularly from underneath the mesh floor to the four points around the wound surface of the animal with slow upward force against the paw. A positive response to tactile pressure was recorded if the paw was sharply withdrawn; ambulation was considered an ambiguous response, and in such cases, the stimulus was reapplied. Mean values from 4 points for each rat and from 5 rats in each group were calculated. Percent inhibition due to treatment relative to pre-treatment pain response was calculated according to the formula: Tactile Pressure [(Post-Treatment) - (Pre-Treatment)]/[(Pre-Incision) - (Pre-Treatment)] x 100%. Inhibition by 50% or more (≥50%) is considered significant analgesic effect. Unpaired Student's t test is applied for comparison of the % inhibition values between test substance-and vehicle-treated groups. Significance is considered at P<0.05 level", "key": {"[1]": {"conditions": "0.00032 mg/rat ITH, individual rat"}, "[2]": {"conditions": "0.00032 mg/rat ITH, group, Δ Treatment/Δ Blank x 100%"}, "[3]": {"conditions": "0.00032 mg/rat ITH, group, Δ Blank 30.2"}, "[4]": {"conditions": "0.0032 mg/rat ITH, individual rat"}, "[5]": {"conditions": "0.0032 mg/rat ITH, group, Δ Treatment/Δ Blank x 100%, ≥50% considered significant"}, "[6]": {"conditions": "0.0032 mg/rat ITH, group, Δ Blank 32.9"}}, "note": "Several values for one entry are separate records, joined by “and”; a condition that tells them apart may be missing. Identical values can stand only once. Counter-ions that a name gives are not always drawn. Marks after values point to notes of the source that are not given here."}
{"smiles": "CC(Oc1c(Cl)cccc1Cl)C1=NCCN1", "note": "(centres unmarked) [Lofexidine HCl]", "values": [{"measurement": "analgesic effect", "setting": "0.00032 mg/rat ITH", "value": "slight analgesic effect"}, {"measurement": "Tactile Pressure (g) Post-treatment 15min.", "setting": "0.00032 mg/rat ITH", "value": "26.6 g and 26.9 g and 28.6 g and 23.1 g (2×) and 21.6 g and 17.6 g and 23.3 g and 15.5 g and 18.4 g and 21.1 g and 19.3 g and 23.6 g and 20.5 g and 24.6 g and 20.1 g and 17.9 g and 19.2 g and 14.4 g and 20.6 g"}, {"measurement": "Tactile Pressure (g) Post-treatment 30min.", "setting": "0.00032 mg/rat ITH", "value": "25.9 g and 23.6 g and 32.5 g and 18.6 g and 25.7 g and 28.4 g and 26.0 g and 20.6 g and 22.3 g and 20.4 g and 17.3 g and 24.6 g and 21.6 g and 22.5 g and 24.4 g and 24.3 g and 20.0 g and 19.4 g and 18.2 g and 19.2 g"}, {"measurement": "Tactile Pressure (g) Post-treatment 60min.", "setting": "0.00032 mg/rat ITH", "value": "23.3 g and 27.3 g and 23.6 g and 26.6 g and 22.9 g and 19.7 g (2×) and 24.4 g and 19.2 g and 19.9 g and 20.3 g and 22.6 g and 18.4 g and 25.1 g and 21.2 g and 22.0 g and 16.2 g and 21.1 g and 20.5 g and 21.6 g"}, {"measurement": "Tactile Pressure (g) Post-treatment 120 min.", "setting": "0.00032 mg/rat ITH", "value": "20.6 g (3×) and 21.0 g (2×) and 17.2 g and 19.9 g (2×) and 24.3 g and 21.2 g and 18.9 g and 21.6 g and 22.0 g and 18.0 g and 20.3 g and 22.4 g (2×) and 23.9 g and 18.6 g and 16.8 g"}, {"measurement": "Tactile Pressure (g) Post-treatment 15min. Ave.", "setting": "[1]", "value": "26.3 g and 21.4 g and 18.6 g and 22.2 g and 18.0 g"}, {"measurement": "Tactile Pressure (g) Post-treatment 30min. Ave.", "setting": "[1]", "value": "25.2 g (2×) and 21.2 g and 23.2 g and 19.2 g"}, {"measurement": "Tactile Pressure (g) Post-treatment 60min. Ave.", "setting": "[1]", "value": "25.2 g and 21.6 g and 20.3 g and 22.0 g and 19.9 g"}, {"measurement": "Tactile Pressure (g) Post-treatment 120 min. Ave.", "setting": "[1]", "value": "19.7 g and 21.4 g and 21.2 g (2×) and 19.4 g"}, {"measurement": "Tactile Pressure (g) Post-treatment 15min. Mean", "setting": "0.00032 mg/rat ITH", "value": 21.3, "unit": "g"}, {"measurement": "Tactile Pressure (g) Post-treatment 30min. Mean", "setting": "0.00032 mg/rat ITH", "value": "22.8* g"}, {"measurement": "Tactile Pressure (g) Post-treatment 60min. Mean", "setting": "0.00032 mg/rat ITH", "value": 21.8, "unit": "g"}, {"measurement": "Tactile Pressure (g) Post-treatment 120 min. Mean", "setting": "0.00032 mg/rat ITH", "value": 20.6, "unit": "g"}, {"measurement": "%Inh 15min.", "setting": "[2]", "value": 2.6, "unit": "%"}, {"measurement": "%Inh 30min.", "setting": "[2]", "value": 7.6, "unit": "%"}, {"measurement": "%Inh 60min.", "setting": "[2]", "value": 4.3, "unit": "%"}, {"measurement": "%Inh 120 min.", "setting": "[2]", "value": 0.3, "unit": "%"}, {"measurement": "Δ Treatment 15min.", "setting": "[3]", "value": 0.8, "unit": "g"}, {"measurement": "Δ Treatment 30min.", "setting": "[3]", "value": 2.3, "unit": "g"}, {"measurement": "Δ Treatment 60min.", "setting": "[3]", "value": 1.3, "unit": "g"}, {"measurement": "Δ Treatment 120 min.", "setting": "[3]", "value": 0.1, "unit": "g"}, {"measurement": "%Inh 15min.", "setting": "[1]", "value": "14.9% and 2.5% and -5.6% and 8.0% and -7.4%"}, {"measurement": "%Inh 30min.", "setting": "[1]", "value": "11.1% and 12.8% and 4.1% and 11.4% and -3.2%"}, {"measurement": "%Inh 60min.", "setting": "[1]", "value": "11.1% and 3.0% and 0.8% and 7.4% and -0.7%"}, {"measurement": "%Inh 120 min.", "setting": "[1]", "value": "-7.4% and 2.5% and 4.1% and 4.7% and -2.5%"}, {"measurement": "Tactile Pressure (g) Post-treatment 15min.", "setting": "0.0032 mg/rat ITH", "value": "48.4 g and 47.2 g and 55.3 g and 30.4 g and 23.5 g and 48.7 g and 43.0 g and 36.2 g and 32.4 g and 33.8 g and 21.4 g and 31.9 g and 37.7 g and 42.5 g (2×) and 34.5 g and 30.5 g and 40.7 g and 60.0 g and 40.6 g"}, {"measurement": "Tactile Pressure (g) Post-treatment 30min.", "setting": "0.0032 mg/rat ITH", "value": "36.4 g and 34.8 g and 44.1 g and 39.3 g and 34.1 g and 44.0 g and 38.1 g and 36.5 g and 36.8 g and 28.8 g and 30.3 g and 33.2 g and 34.5 g and 40.1 g and 37.2 g and 26.8 g and 27.7 g and 44.2 g and 54.3 g and 50.8 g"}, {"measurement": "Tactile Pressure (g) Post-treatment 60min.", "setting": "0.0032 mg/rat ITH", "value": "33.6 g and 35.6 g and 35.5 g and 36.7 g and 29.0 g and 28.5 g and 40.6 g and 31.8 g and 16.1 g and 16.5 g and 21.8 g and 16.6 g and 24.3 g and 26.8 g and 21.3 g and 21.1 g and 31.3 g and 41.3 g and 32.5 g and 49.5 g"}, {"measurement": "Tactile Pressure (g) Post-treatment 120 min.", "setting": "0.0032 mg/rat ITH", "value": "29.3 g and 21.6 g (2×) and 20.4 g and 19.2 g and 22.9 g and 22.1 g and 21.4 g and 14.5 g and 21.5 g and 17.6 g and 18.8 g and 16.2 g and 22.6 g and 24.7 g and 18.6 g and 31.1 g and 28.6 g and 27.9 g and 28.7 g"}, {"measurement": "Tactile Pressure (g) Post-treatment 15min. Ave.", "setting": "[4]", "value": "45.3 g and 37.9 g and 29.9 g and 36.3 g and 46.0 g"}, {"measurement": "Tactile Pressure (g) Post-treatment 30min. Ave.", "setting": "[4]", "value": "38.7 g and 38.2 g and 32.3 g and 34.7 g and 44.3 g"}, {"measurement": "Tactile Pressure (g) Post-treatment 60min. Ave.", "setting": "[4]", "value": "35.4 g and 32.5 g and 17.8 g and 23.4 g and 38.7 g"}, {"measurement": "Tactile Pressure (g) Post-treatment 120 min. Ave.", "setting": "[4]", "value": "22.6 g and 22.0 g and 18.1 g and 20.5 g and 29.1 g"}, {"measurement": "Tactile Pressure (g) Post-treatment 15min. Mean", "setting": "0.0032 mg/rat ITH", "value": "39.1* g"}, {"measurement": "Tactile Pressure (g) Post-treatment 30min. Mean", "setting": "0.0032 mg/rat ITH", "value": "37.6* g"}, {"measurement": "Tactile Pressure (g) Post-treatment 60min. Mean", "setting": "0.0032 mg/rat ITH", "value": 29.6, "unit": "g"}, {"measurement": "Tactile Pressure (g) Post-treatment 120 min. Mean", "setting": "0.0032 mg/rat ITH", "value": 22.5, "unit": "g"}, {"measurement": "%Inh. 15 min.", "setting": "[5]", "value": "(55.9) %"}, {"measurement": "%Inh. 30min.", "setting": "[5]", "value": "(51.4) %"}, {"measurement": "%Inh. 60min.", "setting": "[5]", "value": 27.1, "unit": "%"}, {"measurement": "%Inh. 120 min.", "setting": "[5]", "value": 5.5, "unit": "%"}, {"measurement": "Δ Treatment 15min.", "setting": "[6]", "value": 18.4, "unit": "g"}, {"measurement": "Δ Treatment 30min.", "setting": "[6]", "value": 16.9, "unit": "g"}, {"measurement": "Δ Treatment 60min.", "setting": "[6]", "value": 8.9, "unit": "g"}, {"measurement": "Δ Treatment 120 min.", "setting": "[6]", "value": 1.8, "unit": "g"}, {"measurement": "%Inh 15min.", "setting": "[4]", "value": "67.7% and 46.2% and 39.2% and 41.8% and 84.2%"}, {"measurement": "%Inh 30min.", "setting": "[4]", "value": "48.4% and 47.0% and 47.7% and 36.7% and 78.8%"}, {"measurement": "%Inh 60min.", "setting": "[4]", "value": "38.7% and 32.5% and -3.5% and 0.9% and 60.8%"}, {"measurement": "%Inh 120 min.", "setting": "[4]", "value": "1.2% and 5.8% and -2.5% and -8.2% and 29.9%"}, {"measurement": "analgesic effect against post-operative pain", "setting": "0.0032 mg/rat intrathecal, at 15 and 30 minute time points, compared with Δ blank values", "value": "demonstrated analgesic effect"}]}
